Test results: ChEMBL document CHEMBL5252509, “In depth analysis of kinase cross screening data to identify chemical starting points for inhibition of the Nek family of kinases” (Medchemcomm, 2018)

Columns and labels:
[1] = molecular target: T1, Serine/threonine-protein kinase Nek3 (Homo sapiens) (UniProt P51956); assay: Inhibition of NEK3 (unknown origin) at 10 uM relative to control
T1 sequence (whole entry): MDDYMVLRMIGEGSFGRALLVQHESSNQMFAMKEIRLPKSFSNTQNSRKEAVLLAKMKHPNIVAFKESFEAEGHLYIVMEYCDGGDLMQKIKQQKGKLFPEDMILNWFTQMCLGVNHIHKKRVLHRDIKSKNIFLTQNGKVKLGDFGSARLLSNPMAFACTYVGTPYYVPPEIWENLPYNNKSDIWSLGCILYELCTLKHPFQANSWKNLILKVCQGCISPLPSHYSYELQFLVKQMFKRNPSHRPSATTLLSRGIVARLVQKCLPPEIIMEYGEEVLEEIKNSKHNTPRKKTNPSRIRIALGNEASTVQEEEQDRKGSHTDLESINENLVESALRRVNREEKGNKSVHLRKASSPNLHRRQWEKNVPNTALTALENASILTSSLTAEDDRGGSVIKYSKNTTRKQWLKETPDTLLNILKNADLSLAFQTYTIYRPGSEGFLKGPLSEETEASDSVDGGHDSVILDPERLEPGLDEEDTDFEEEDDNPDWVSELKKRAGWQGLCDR

[2] = molecular target: Serine/threonine-protein kinase Nek7 (Homo sapiens) (UniProt Q8TDX7); assay: Inhibition of NEK7 (unknown origin) at 10 uM relative to control
Serine/threonine-protein kinase Nek7 (Homo sapiens), sequence (Q8TDX7 whole entry, looked up): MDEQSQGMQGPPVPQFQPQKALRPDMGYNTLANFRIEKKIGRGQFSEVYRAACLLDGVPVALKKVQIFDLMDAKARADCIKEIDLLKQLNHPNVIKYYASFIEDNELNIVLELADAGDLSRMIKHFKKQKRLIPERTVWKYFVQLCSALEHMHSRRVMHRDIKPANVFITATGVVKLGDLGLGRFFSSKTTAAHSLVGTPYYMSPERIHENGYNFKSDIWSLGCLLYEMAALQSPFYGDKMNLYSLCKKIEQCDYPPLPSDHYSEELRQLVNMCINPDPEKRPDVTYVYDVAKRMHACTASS

% control [1] [%]	% control [2] [%]	Structure (SMILES)
6.8	7	CN(C)C/C=C/C(=O)Nc1cccc(C(=O)Nc2ccc(Nc3nccc(-c4cccnc4)n3)cc2)c1
17	9.8	CN(C)C/C=C/C(=O)Nc1ccc(C(=O)Nc2cccc(Nc3nccc(-c4cccnc4)n3)c2)cc1
